Values quoted from earlier work as cited in US20100112033A1, “STENTS COATED WITH NO- AND S-NITROSOTHIOL-ELUTING HYDROPHLIC POLYMERIC BLENDS” (Universidade Estadual de Campinas UNICAMP, priority 2005, published 2010).

Columns and labels:
stenosis = settings: applied to damaged vascular site, rabbit coronary artery
neointimal formation = settings: compared to non-nitrosated polymer
platelet aggregation = settings: compared to non-nitrosated polymer
neointimal hyperplasia = settings: patients, six months after stenting

Substance | effect on stenosis (stenosis) | reduction of neointimal formation (neointimal formation) [%] | reduction of platelet aggregation (platelet aggregation) | neointimal hyperplasia (neointimal hyperplasia)
bovine S-nitrosated albumin: nitrosated protein, a protein adduct of nitric oxide | proved to reduce stenosis | 40 | 50-70% | 
sirulimus |  |  |  | minimal neointimal hyperplasia
